Laboratory results published in ChEMBL document CHEMBL1909046, “DrugMatrix in vitro pharmacology data”.

Legend:
[1] = DRUGMATRIX: Glutamate, AMPA radioligand binding (ligand: [3H] AMPA); assay type: cell membranes, Rattus norvegicus, Wistar, Cerebral cortex, Membrane; conditions: Not Active = under 50% inhibition at 10 µM
[2] = molecular target: T1, Cysteinyl leukotriene receptor 1 (Homo sapiens, UniProt Q9Y271); assay type: cell membranes, CHO-K1, Membrane; conditions: cho-k1; also: in other assays of this panel Not Active means under 50% inhibition at 10 µM
T1 sequence (Q9Y271 whole entry): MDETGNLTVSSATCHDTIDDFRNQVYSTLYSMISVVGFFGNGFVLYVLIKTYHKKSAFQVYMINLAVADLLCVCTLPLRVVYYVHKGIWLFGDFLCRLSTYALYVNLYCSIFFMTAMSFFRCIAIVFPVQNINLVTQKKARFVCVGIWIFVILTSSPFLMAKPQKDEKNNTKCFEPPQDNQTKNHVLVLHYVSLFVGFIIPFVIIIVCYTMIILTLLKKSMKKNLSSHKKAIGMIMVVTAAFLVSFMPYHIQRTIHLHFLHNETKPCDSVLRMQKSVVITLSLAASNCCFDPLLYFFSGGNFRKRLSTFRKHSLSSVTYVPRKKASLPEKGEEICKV

Cytochrome P450 2D6 = Cytochrome P450 2D6 (Homo sapiens, UniProt P10635); conditions: bti-tn-5b1-4; also: in other assays of this panel Not Active means under 50% inhibition at 10 µM
Sequence of Cytochrome P450 2D6 (P10635 whole entry): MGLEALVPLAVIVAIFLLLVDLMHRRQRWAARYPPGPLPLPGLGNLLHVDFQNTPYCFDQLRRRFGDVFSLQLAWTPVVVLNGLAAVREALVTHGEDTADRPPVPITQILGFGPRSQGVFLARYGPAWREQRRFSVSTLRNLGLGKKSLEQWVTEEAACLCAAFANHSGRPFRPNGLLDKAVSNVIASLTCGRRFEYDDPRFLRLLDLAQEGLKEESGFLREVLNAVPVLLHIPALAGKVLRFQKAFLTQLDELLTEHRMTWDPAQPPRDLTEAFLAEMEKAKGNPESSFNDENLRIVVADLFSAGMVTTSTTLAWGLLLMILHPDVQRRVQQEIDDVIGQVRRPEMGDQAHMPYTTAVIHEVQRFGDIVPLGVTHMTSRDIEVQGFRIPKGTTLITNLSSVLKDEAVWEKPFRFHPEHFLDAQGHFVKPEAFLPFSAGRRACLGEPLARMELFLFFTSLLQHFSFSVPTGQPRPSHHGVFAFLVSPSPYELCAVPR

Estrogen receptor beta = Estrogen receptor beta (Homo sapiens, UniProt Q92731); conditions: sf9; also: in other assays of this panel Not Active means under 50% inhibition at 10 µM
Sequence of Estrogen receptor beta (Q92731 whole entry): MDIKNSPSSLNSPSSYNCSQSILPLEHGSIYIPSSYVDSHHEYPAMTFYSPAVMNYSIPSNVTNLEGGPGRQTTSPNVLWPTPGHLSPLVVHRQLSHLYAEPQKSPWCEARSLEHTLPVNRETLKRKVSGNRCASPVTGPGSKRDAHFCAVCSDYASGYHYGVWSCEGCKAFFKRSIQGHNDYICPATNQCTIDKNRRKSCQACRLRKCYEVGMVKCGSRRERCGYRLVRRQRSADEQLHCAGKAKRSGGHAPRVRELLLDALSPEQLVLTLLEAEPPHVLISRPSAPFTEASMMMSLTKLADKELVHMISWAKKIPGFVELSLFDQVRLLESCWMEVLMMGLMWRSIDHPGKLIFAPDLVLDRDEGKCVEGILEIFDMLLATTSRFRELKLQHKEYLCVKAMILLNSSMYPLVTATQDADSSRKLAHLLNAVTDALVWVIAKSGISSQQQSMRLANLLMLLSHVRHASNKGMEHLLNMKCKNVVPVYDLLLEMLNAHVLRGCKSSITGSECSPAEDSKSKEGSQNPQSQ

[3] = DRUGMATRIX: Leukotriene, BLT (LTB4) radioligand binding (ligand: [3H]LTB4); assay type: cell membranes, Membrane; conditions: u-937; Not Active = under 50% inhibition at 10 µM
Carbonic anhydrase 2 = Carbonic anhydrase 2 (Homo sapiens, UniProt P00918); assay: DRUGMATRIX: Carbonic Anhydrase II enzyme inhibition (substrate: 4-Nitrophenyl acetate (4-NPA)); assay type: tissue-based, Erythrocyte; conditions: erythrocyte; Not Active = under 50% inhibition at 10 µM
[4] = molecular target: cGMP-specific 3',5'-cyclic phosphodiesterase (Homo sapiens, UniProt O76074); assay: DRUGMATRIX: Phosphodiesterase PDE5 enzyme inhibition (substrate: [3H]cGMP + cGMP); assay type: tissue-based, Platelet; conditions: platelet; Not Active = under 50% inhibition at 10 µM
[5] = DRUGMATRIX: Calcium Channel Type L, Benzothiazepine radioligand binding (ligand: [3H] Diltiazem); assay type: cell membranes, Rattus norvegicus, Wistar, Brain, Membrane; conditions: Not Active = under 50% inhibition at 10 µM
[6] = molecular target: T2, Amine oxidase [flavin-containing] A (Homo sapiens, UniProt P21397); assay: DRUGMATRIX: Monoamine Oxidase MAO-A enzyme inhibition (substrate: Kynuramine); design: species or system BTI-TN-5B1-4; conditions: bti-tn-5b1-4; Not Active = under 50% inhibition at 10 µM
T2 sequence (P21397 whole entry): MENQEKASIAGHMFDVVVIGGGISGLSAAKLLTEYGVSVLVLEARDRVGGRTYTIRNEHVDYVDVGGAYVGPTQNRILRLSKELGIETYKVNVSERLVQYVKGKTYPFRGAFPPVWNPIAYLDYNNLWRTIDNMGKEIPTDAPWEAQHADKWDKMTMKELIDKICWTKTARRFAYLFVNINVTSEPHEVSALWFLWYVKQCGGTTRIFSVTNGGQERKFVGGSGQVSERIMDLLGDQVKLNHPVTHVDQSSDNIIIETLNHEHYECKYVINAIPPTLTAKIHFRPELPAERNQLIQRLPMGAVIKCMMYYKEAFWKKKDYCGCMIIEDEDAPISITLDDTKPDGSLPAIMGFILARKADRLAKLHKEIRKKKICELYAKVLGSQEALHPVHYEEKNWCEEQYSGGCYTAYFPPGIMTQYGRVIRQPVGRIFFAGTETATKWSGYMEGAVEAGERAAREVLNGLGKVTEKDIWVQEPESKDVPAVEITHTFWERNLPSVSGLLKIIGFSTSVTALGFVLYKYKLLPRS

[7] = molecular target: Protein kinase C alpha type (Homo sapiens, UniProt P17252); assay type: cell-based; conditions: sf9;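 also: inhibition of PKCalpha kinase activity measured in an enzyme assay with histone as the phosphorylation substrate; in other assays of this panel Not Active means under 50% inhibition at 10 µM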
[8] = molecular target: T3, Neuropeptide Y receptor type 1 (Homo sapiens, UniProt P25929); assay type: cell membranes, Membrane; conditions: sk-n-mc; also: in other assays of this panel Not Active means under 50% inhibition at 10 µM
T3 sequence (P25929 whole entry): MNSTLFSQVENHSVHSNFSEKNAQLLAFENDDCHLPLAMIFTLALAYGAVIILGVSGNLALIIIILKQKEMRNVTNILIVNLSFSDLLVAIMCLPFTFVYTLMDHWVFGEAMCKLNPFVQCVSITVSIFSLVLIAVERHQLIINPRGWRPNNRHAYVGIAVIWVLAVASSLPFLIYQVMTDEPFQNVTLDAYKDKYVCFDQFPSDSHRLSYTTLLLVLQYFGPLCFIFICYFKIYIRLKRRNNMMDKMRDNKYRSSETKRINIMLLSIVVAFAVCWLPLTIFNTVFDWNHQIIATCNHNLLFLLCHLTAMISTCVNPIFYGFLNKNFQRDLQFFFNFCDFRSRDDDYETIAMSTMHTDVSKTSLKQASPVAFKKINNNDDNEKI

Cytochrome P450 1A2 = molecular target: T4, Cytochrome P450 1A2 (Homo sapiens, UniProt P05177); conditions: bti-tn-5b1-4; also: in other assays of this panel Not Active means under 50% inhibition at 10 µM
T4 sequence (P05177 whole entry): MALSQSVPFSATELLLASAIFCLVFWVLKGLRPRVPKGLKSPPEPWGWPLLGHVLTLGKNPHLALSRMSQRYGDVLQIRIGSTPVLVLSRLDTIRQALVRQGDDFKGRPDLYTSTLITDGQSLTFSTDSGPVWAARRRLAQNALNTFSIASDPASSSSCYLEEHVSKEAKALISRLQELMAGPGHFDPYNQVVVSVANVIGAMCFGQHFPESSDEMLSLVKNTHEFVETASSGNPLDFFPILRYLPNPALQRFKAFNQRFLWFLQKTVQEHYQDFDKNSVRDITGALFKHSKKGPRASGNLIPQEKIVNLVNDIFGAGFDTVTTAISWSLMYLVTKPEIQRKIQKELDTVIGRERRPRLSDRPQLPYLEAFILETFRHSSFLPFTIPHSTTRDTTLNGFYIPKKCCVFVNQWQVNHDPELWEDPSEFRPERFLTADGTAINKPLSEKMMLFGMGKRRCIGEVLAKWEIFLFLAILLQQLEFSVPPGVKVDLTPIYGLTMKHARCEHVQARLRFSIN

CC(=O)CCCCn1c(=O)c2c(ncn2C)n(C)c1=O [PENTOXIFYLLINE]
Not Active: IC50 [1] | Ki [1] | IC50 [2] | IC50 (Cytochrome P450 2D6) | Ki (Cytochrome P450 2D6) | IC50 (Estrogen receptor beta) | IC50 [3] | Ki [3] | IC50 (Carbonic anhydrase 2) | IC50 [4] | IC50 [5] | Ki [5] | IC50 [6] | IC50 [7] | IC50 [8] | IC50 (Cytochrome P450 1A2) | Ki (Cytochrome P450 1A2)

C=C(C)[C@@H]1[C@H]2OC(=O)[C@@H]1[C@]1(O)C[C@H]3O[C@]34C(=O)O[C@H]2[C@]14C [PICROTOXININ]
Not Active: IC50 [1] | Ki [1] | IC50 [2] | IC50 (Cytochrome P450 2D6) | Ki (Cytochrome P450 2D6) | IC50 (Estrogen receptor beta) | IC50 [3] | Ki [3] | IC50 (Carbonic anhydrase 2) | IC50 [4] | IC50 [5] | Ki [5] | IC50 [6] | IC50 [7] | IC50 [8] | IC50 (Cytochrome P450 1A2) | Ki (Cytochrome P450 1A2)

CCC1(c2ccccc2)C(=O)NCNC1=O [PRIMIDONE]
Not Active: IC50 [1] | Ki [1] | IC50 [2] | IC50 (Cytochrome P450 2D6) | Ki (Cytochrome P450 2D6) | IC50 (Estrogen receptor beta) | IC50 [3] | Ki [3] | IC50 (Carbonic anhydrase 2) | IC50 [4] | IC50 [5] | Ki [5] | IC50 [6] | IC50 [7] | IC50 [8] | IC50 (Cytochrome P450 1A2) | Ki (Cytochrome P450 1A2)

CARBOPLATIN
Not Active: IC50 [1] | Ki [1] | IC50 [2] | Ki [2] | IC50 (Cytochrome P450 2D6) | Ki (Cytochrome P450 2D6) | IC50 (Estrogen receptor beta) | Ki (Estrogen receptor beta) | IC50 [3] | Ki [3] | IC50 (Carbonic anhydrase 2) | Ki (Carbonic anhydrase 2) | IC50 [4] | Ki [4] | IC50 [5] | Ki [5] | IC50 [6] | Ki [6] | IC50 [7] | Ki [7] | IC50 [8] | Ki [8] | IC50 (Cytochrome P450 1A2) | Ki (Cytochrome P450 1A2)

CISPLATIN
Not Active: IC50 [1] | Ki [1] | IC50 [2] | Ki [2] | IC50 (Cytochrome P450 2D6) | Ki (Cytochrome P450 2D6) | IC50 (Estrogen receptor beta) | Ki (Estrogen receptor beta) | IC50 [3] | Ki [3] | IC50 (Carbonic anhydrase 2) | Ki (Carbonic anhydrase 2) | IC50 [4] | Ki [4] | IC50 [5] | Ki [5] | IC50 [6] | Ki [6] | IC50 [7] | Ki [7] | IC50 [8] | Ki [8] | IC50 (Cytochrome P450 1A2) | Ki (Cytochrome P450 1A2)

GOLD SODIUM THIOMALATE
Not Active: IC50 [1] | Ki [1] | IC50 [2] | Ki [2] | IC50 (Cytochrome P450 2D6) | Ki (Cytochrome P450 2D6) | IC50 (Estrogen receptor beta) | Ki (Estrogen receptor beta) | IC50 [3] | Ki [3] | IC50 (Carbonic anhydrase 2) | Ki (Carbonic anhydrase 2) | IC50 [4] | Ki [4] | IC50 [5] | Ki [5] | IC50 [6] | Ki [6] | IC50 [7] | Ki [7] | IC50 [8] | Ki [8] | IC50 (Cytochrome P450 1A2) | Ki (Cytochrome P450 1A2)
